The text below walks through data of publication PMC9607578, “Chemopreventive Effect on Human Colon Adenocarcinoma Cells of Styrylquinolines: Synthesis, Cytotoxicity, Proapoptotic Effect and Molecular Docking Analysis” (Molecules, 2022).

“Also recorded” adds a separate entry of the source. Read-outs that look alike come from different tables or passages of the source.

Assay [1] has as its system SW480 cells. The experiment in a line: Immunological markers, ProcartaPlex 18-plex panel, MAGPIX. The assay is classed as cell-based, human. To be noted: at IC50. The protocol: (§1) To assess whether styrylquinolines had any effect on the expression of immunological markers associated with the inflammatory process, malignant cells were seeded at a final density of 2.5 × 10^5 cells/well in 6-well tissue culture plates, and cell adherence was allowed. […] After the incubation time, the supernatant was collected, and the levels of the following analytes were measured using the ProcartaPlex Human Th1/Th2/Th9/Th17/Th22/Treg 18-plex panel (Invitrogen) according to the manufacturer’s protocol: GM-CSF, IFN-γ, TNF-α, IL-10, IL-12p70, IL-13, IL-17A, IL-18, IL-1β, IL-2, IL-21, IL-22, IL-23, IL-27, IL-4, IL-5, IL-6, and IL-9. Furthermore, to evaluate the participation of these hybrids in the production of some markers associated with the apoptosis process (Bcl-2, active Caspase-3 and cleaved PARP) in colorectal cancer cells, the human apoptosis panel (Invitrogen, Waltham, Massachusetts, United States) was used following the manufacturer’s instructions. To normalize the concentration of each marker, total proteins were quantified using the PierceTM BCA kit (Thermo Fisher Scientific, Waltham, MA, USA).
(§2) In both cases, the reading was performed in the MAGPIX marker multiplex analyzer (Luminex XMAP, Austin, TX, USA). The concentration of each molecule was extrapolated from the calibration curve (individual for each marker) obtained from the standards provided by the kit.

Assay [2] relates to SW620 cells. Described as above. The assay is classed as cell-based, human. To be noted: at IC50. The protocol:
as §1, §2

The next assay relates to HaCaT cells. Put plainly: Cytotoxic activity, sulforhodamine B (SRB) staining. The assay is classed as cell-based. To be noted: Homo sapiens, mean ± SE, read-out: HaCaT IC50. As to the method:
(§3) For the biological assays, the human colon adenocarcinoma cell line SW480 and its metastatic derivative SW620 were used. Additionally, the nonmalignant cell line HaCaT was used to find the selectivity index of the compounds. All cell lines were obtained by the Colombian Plant Chemistry Group of the Faculty of Exact and Natural Sciences of the University of Antioquia (Medellín, Colombia) from the European Collection of Authenticated Cell Cultures (ECACC, Salisbury, UK). Cells were cultured in a DMEM medium with 4500 mg/L of glucose and L-glutamine (Sigma-Aldrich, Burlington, MA, USA), supplemented with 10% heat-inactivated (56 °C) horse serum (Gibco, Waltham, MA, USA), 1% penicillin/streptomycin (Sigma-Aldrich, Burlington, MA, USA), and 1% non-essential amino acids (Sigma-Aldrich, Burlington, MA, USA). For all experiments, horse serum was reduced to 3%, and the medium was supplemented with […] of transferrin, 5 ng/mL of selenium, and […] of insulin (ITS; Sigma-Aldrich, Burlington, MA, USA). All cell lines were incubated at 37 °C in a 5% CO2 atmosphere. Additionally, cell cultures were constantly monitored with PCR (Sigma-Aldrich, Burlington, MA, USA) for Mycoplasma spp. to control contamination with this agent.
(§4) To evaluate the effect of styrylquinolines on the viability of the SW480, SW620, and HaCaT cell lines, sulforhodamine B (SRB) staining was used. SRB is a colorimetric assay that indirectly estimates the number of living cells based on the ability of SRB to bind to protein components of adherent cells. Briefly, the malignant cell lines were seeded at a final density of 2.0 × 10^4 cells/well, and the nonmalignant cell line was seeded at a final density of 1.5 × 10^4 cells/well in 96-well tissue culture plates. All cell lines were incubated at 37 °C in a 5% CO2 atmosphere for 24 h to enable cell adherence, and they were then treated for 24 and 48 h with increasing concentrations (0.01–160 µM) of the styrylquinolines or their respective precursors (8-hydroxyquinoline and resveratrol), as well as 1% DMSO (negative control) and 5-FU (standard drug). After treatment, cells were fixed with trichloroacetic acid (50% v/v; PanReac AppliChem, Barcelona, Spain) for a period of one hour at 4 °C. After this, the cells were incubated for 30 min at room temperature with 0.4% (w/v) SRB (Sigma-Aldrich, Burlington, MA, USA). To remove unbound SRB, the cells were washed with 1% acetic acid, and the plates were allowed to dry at room temperature. Protein-bound SRB was solubilized with 10 mM Tris-base (Amresco, Cleveland, OH, USA) for 30 min at room temperature under constant agitation, and absorbance was measured at 490 nm in a microplate reader (Bio-Rad iMark^TM, Hercules, CA, USA). Finally, the concentration of the compound that inhibits 50% of cell growth (IC50) and the selectivity index (SI) were determined.
(In general: The SRB assay estimates cell density from bound dye.)

The test system of assay [3] is SW620 cells. The experiment in a line: Apoptosis markers (Bcl-2, active caspase 3, cleaved PARP), human apoptosis panel, MAGPIX. The assay is classed as cell-based. To be noted: vs negative control. The protocol:
as §1, §2

In assay [4] the test system is SW620 cells. The experiment in a line: Apoptosis, APO-DIRECT kit (FITC-dUTP/PI), flow cytometry. It counts as cell-based, human. To be noted: treated at IC50. As to the method: To assess whether the chosen styrylquinolines generated apoptosis in malignant cells, the APO-DIRECT^TM kit (Chemicon^R International, Temecula, CA, USA) was used following the manufacturer’s instructions. Briefly, the malignant cells were seeded at a final density of 1.1 × 10^6 cells in a T75 culture flask and incubated for 24 h at 37 °C in a 5% CO2 atmosphere. […] After incubation time, cells were fixed and stained with FITC-dUTP and propidium iodide (PI), respectively, according to the manufacturer’s protocol. Analysis was conducted via flow cytometry (LSR Fortessa; BD Biosciences, San Jose, CA, USA) and FlowJo 7.6 software. All PI-FITC-positive cells were considered to be apoptotic cells.
For orientation: In flow cytometry, cells or beads pass a laser one at a time.

Assay [5] concerns SW480 cells. Put plainly: Antiproliferative activity, SRB staining, 0-8 days. To be noted: for Concentration required to significantly decrease cell viability percentage from day 2 post-treatment: SW480, day 2; for Concentration from which cell viability percentage is decreased to 0% / high percentage of reduction: SW480, treatment up to 8 days. The assay is classed as cell-based, human. As to the method:
(§5) The antiproliferative activity of styrylquinolines with higher selective cytotoxicity toward malignant cells was also tested with SRB staining. Briefly, cells were seeded to a final density of 2.5 × 10^3 cells/well in 96-well tissue culture plates and incubated under the same conditions described for cytotoxic activity. After 24 h, the cells were treated with increasing concentrations (5–80 µM) of the selected hybrids or with 1% DMSO (negative control) for 0, 2, 4, 6, and 8 days. Culture media were replaced every 48 h to guarantee the basic nutrients required for cell growth and viability, maintaining the concentrations of each of the selected hybrids. After each incubation time, cells were fixed and stained, and the absorbance was measured as described above.

Assay [6] relates to SW620 cells. The experiment in a line: Antiproliferative activity, SRB staining, 0-8 days. The assay is classed as cell-based, human. To be noted: for Concentration required to significantly decrease cell viability percentage from day 2 post-treatment: SW620, day 2; for Concentration from which cell viability percentage is decreased to 0% / high percentage of reduction: SW620, treatment up to 8 days. The protocol:
as §5

For assay [7], the system named is SW480 cells. The experiment in a line: Cytotoxic activity, sulforhodamine B (SRB) staining. It counts as cell-based, human. To be noted: for IC50: Homo sapiens, SW480, mean ± SE, read-out: SW480 IC50. The protocol:
as §3, §4

Assay [8] has as its system SW620 cells. The description is as above. The assay is classed as cell-based, human. To be noted: for IC50: Homo sapiens, SW-620, mean ± SE, read-out: SW620 IC50. The protocol:
as §3, §4

Assay [9] concerns SW480 cells. The experiment in a line: Intracellular ROS production, 2',7'-DCFDA probe. It counts as cell-based, human. To be noted: SW480, 48 h, treated at IC50, mean ± SE. As to the method:
(§6) In order to evaluate the effect of the chosen styrylquinolines on the production of ROS in malignant cells, the 2′,7′-dichlorofluorescein diacetate (2′,7′-DCFDA) probe (Calbiochem, San Diego, CA, USA) was used as described by Kim et al.. Briefly, malignant cells were seeded at a final density of 2.5 × 10^5 cells/well in 6-well tissue culture plates for 24 h at 37 °C in a 5% CO2 atmosphere. […] After treatment, 2′,7′-DCFDA was added to a final concentration of 10 µM and incubated at 37 °C for 30 min. Finally, representative images of each well were taken using a fluorescence microscope (Axio Vert. A1; ZEISS, Jena, Germany) and Zen blue 3.4 software. The cell lysate was obtained from each well, and relative fluorescence units (RFU) were measured at excitation/emission wavelength (Ex/Em) = 485/525 nm using the Varioskan Lux microplate reader (Thermo Fisher Scientific, Waltham, MA, USA). The total protein concentration was quantified with the BCA method using the Pierce^TM BCA kit (Thermo Fisher Scientific, Waltham, MA, USA) to normalize the UFR.

Assay [10] deals with SW620 cells. Put plainly: Intracellular ROS production, 2',7'-DCFDA probe. The assay is classed as cell-based, human. To be noted: SW620, 24 h, treated at IC50, mean ± SE. As to the method: as §6

As for `Oc1ccc(/C=C/c2ccc3cccc(O)c3n2)cc1` [Compound 3a], the “Levels of immunological markers” value was “significant increases in the levels of GM-CSF, IFN gamma, IL-12p70, IL-4, IL-6, IL-10, and IL-17A” in the assay with SW480 cells [1] (SW480, 24 h post-treatment); “significant increases in GM-CSF, IFN gamma, IL-4, IL-6, IL-10 and IL-17A levels; also recorded: significant increases in the levels of IL-1 beta, IL-13, IL-18, IL-2, TNF alpha, IL-22, IL-27, and IL-9” in the assay with SW480 cells [1] (SW480, 48 h post-treatment); “significant increase in the levels of GM-CSF, IL-13, IL-18, IL-4, TNF alpha, IL-22, and IL-9” with SW620 cells [2] (SW620, 24 h post-treatment); “levels of IL-4 and IL-10 were significantly increased” in the assay with SW620 cells [2] (SW620, 48 h post-treatment). The IC50 – broadly, the point on the concentration scale where inhibition reaches its midpoint – with HaCaT cells (24 h treatment) was determined as 232 ± 29.2 µM; in the assay on HaCaT cells (48 h treatment) it was 47.9 ± 3.3 µM; in the assay with SW480 cells [7] (24 h treatment), 67.7 ± 2.8 µM; with SW480 cells [7] (48 h treatment) it was 26.5 ± 4 µM; with SW620 cells [8] (24 h treatment) it was 60.5 ± 2.9 µM; with SW620 cells [8] (48 h treatment) it was 16.6 ± 2.2 µM. In addition, in the assay on SW620 cells [3] (SW620, 24 and 48 h), the “Levels of Bcl-2 and cleaved PARP” value is reported as “did not show significant differences”. The “Levels of active caspase 3” value in the assay on SW620 cells [3] (SW620, 24 and 48 h post-treatment) was “significantly increased”. Further, the “Apoptotic cells (cell death by apoptosis)” value in the assay on SW620 cells [4] (SW620, 24 h) was determined as 6.8%; in the assay with SW620 cells [4] (SW620, 48 h) it was 21.5%. In addition, the “Concentration required to significantly decrease cell viability percentage from day 2 post-treatment” value in the assay with SW480 cells [5] was 20 µM; in the assay on SW620 cells [6], 5 µM. For the same molecule, the “Concentration from which cell viability percentage is decreased to 0% / high percentage of reduction” value with SW480 cells [5] and with SW620 cells [6] was 10 µM throughout. Also, the “SI (IC50 HaCaT / IC50 SW480)” value in the assay with SW480 cells [7] (24 h treatment) is recorded as 3.4; in the assay on SW480 cells [7] (48 h treatment), 1.8. Further, the “SI (IC50 HaCaT / IC50 SW620)” value in the assay on SW620 cells [8] (24 h treatment) is listed as 3.8; in the assay on SW620 cells [8] (48 h treatment), 2.9.
Regarding `Oc1ccc(/C=C/c2ccc3cccc(O)c3n2)cc1O` [Compound 3d], the IC50 in the assay on HaCaT cells (24 h treatment) amounted to 164 ± 14.1 µM; in the assay with HaCaT cells (48 h treatment) it was 78.9 ± 2.3 µM; in the assay on SW480 cells [7] (24 h treatment), 160 ± 16.6 µM; in the assay on SW480 cells [7] (48 h treatment) it was 42.5 ± 5.2 µM; in the assay with SW620 cells [8] (24 h treatment), 54.6 ± 7.5 µM; with SW620 cells [8] (48 h treatment), 6.4 ± 1.1 µM. Moreover, the ROS levels in the assay on SW480 cells [9] turned out to be 3.3 ± 0.2 RFU; in the assay with SW620 cells [10], 1.8 ± 0.1 RFU. Moreover, the “Concentration required to significantly decrease cell viability percentage from day 2 post-treatment” value in the assay with SW480 cells [5] is listed as 40 µM; in the assay with SW620 cells [6], 20 µM. Moreover, the “Concentration from which cell viability percentage is decreased to 0% / high percentage of reduction” value with SW480 cells [5] and in the assay with SW620 cells [6] was 40 µM throughout. Further, the “SI (IC50 HaCaT / IC50 SW480)” value was 1.0 with SW480 cells [7] (24 h treatment) and 1.9 in the assay with SW480 cells [7] (48 h treatment). The entries for the “SI (IC50 HaCaT / IC50 SW620)” value in the assay on SW620 cells [8] (24 h treatment) and with SW620 cells [8] (48 h treatment) were 3.0 and 12.3, respectively.
